According to patent US20040029860A1, “Anti-proliferative drugs” (priority 2000, published 2004):
“Also recorded” adds a separate entry of the source. Read-outs that look alike come from different tables or passages of the source.

Experiments:
[1] = system: MDR B16 melanoma; assay: sensitization to doxorubicin, MDR B16 melanoma; assay type: cell-based, mouse; settings: dose dependant, FIG. 6C
[2] = system: HaCat I5 keratinocytes; assay: keratinocyte viability, Neutral red, HaCat I5; assay type: cell-based, human; settings: for cell viability HaCat I5 (in words): 5-100 μM, 24 hr, Neutral red, FIG. 13B, 15B
Description: (§1) The drugs were administered at concentrations within the range of 5-100 μM and cell viability was measured 24 hr post-administration by Neutral red staining. The efficiency of the agents against viability of the cell lines was evaluated also by comparison with two commonly used anticancer agents (Doxorubicin and 5-fluorouracil (5-FU)) at equimolar concentrations.

[3] = system: doxorubicin resistant neuroblastoma cells (SH-SY5T); assay: sensitization to doxorubicin, doxorubicin resistant neuroblastoma SH-SY5T; assay type: cell-based, human; settings: dose dependant, FIG. 6E, 6F
[4] = system: B16 melanoma cells; assay: sensitization to doxorubicin, B16 melanoma cells; assay type: cell-based, mouse
[5] = system: mouse Lewis lung carcinoma (3LL); assay: in vivo effect on Lewis lung carcinoma (3LL) in mice; settings: 3LL inoculated C57 mice, i.p. daily, thioridazine 15 mg/kg, others 30 mg/kg; for lungs weight / tumor size compared to control group: FIG. 5
Description: Female C57 black mice aged 4 weeks were used in order to evaluate the in vivo effect of cyclic psychotropic agents on tumor cells. In particular, animals were divided into 5 groups (6-8 mice each). Animals were inoculated with mouse Lewis lung carcinoma (3LL, 0.5 million each) by i.v. injection to the tail vein and then treated by i.p. injection daily for 3 weeks with the following different agents
(5) Paroxetine (30 mg/kg).
During the treatment period animals were inspected daily and their body weight registered twice a week. […] After the four weeks of treatment the mice were sacrificed and their lungs dissected and weighted.

[6] = system: HaCat keratinocytes; assay: keratinocyte viability, Neutral red, HaCat; assay type: cell-based, human; settings: for cell viability HaCat (in words): 5-100 μM, 24 hr, Neutral red, FIG. 13A, 15A; for IC50: Homo sapiens, HaCaT
Description: as §1

[7] = system: different cell-lines; assay: mean IC50 over cell lines and therapeutic index
[8] = system: human neuroblastoma (SH-SY5T); assay: cell viability, neuroblastoma SH-SY5T; assay type: cell-based; settings: for IC50: Homo sapiens
Description: The effect of paroxetine on primary tissue cultures was also evaluated. […] The viability of the cells after treatment with paroxetine was determined by neutral red (NR) technology 24 hr. post treatment.
(§2) Cyclic antidepressants at varying concentrations (between 10PM and 100 μM) was applied to neuroblastoma SH-SY5T, 3LL lung carcinoma, prostate (LN-CapAp), melanoma B16, and cell viability was determined as described above.

[9] = system: mouse lung sarcoma (3LL); assay: cell viability, lung 3LL; assay type: cell-based; settings: Mus musculus; Table 1B; read-out: Cell viability IC50 Lungs Sarcoma 3LL
Description: In another experiment the effect of clotiapine at the same concentrations on the viability of mouse lung carcinoma (3LL) cells was determined.
as §2

[10] = system: mouse melanoma (B-16); assay: cell viability, melanoma B16; assay type: cell-based; settings: Mus musculus
Description: as §2

[11] = system: human prostate (LN-CapAp); assay: cell viability, prostate LN-Cap; assay type: cell-based; settings: Homo sapiens, LNCaP
Description: The effect of trifluoperazine and flupentixol was studied in two cell-lines of human prostate cancer: androgen dependent (LN-Cap) and androgen independent (PC-3).
as §2

[12] = system: HaCat II-4RT keratinocytes; assay: keratinocyte viability, Neutral red, HaCat II4; assay type: cell-based; settings: Homo sapiens
Description: as §1

[13] = system: mouse melanoma B16 MDR cells; assay: cell viability, melanoma B16 MDR; assay type: cell-based
[14] = system: rat glioblastoma (C6); assay: cell viability, glioma C6; assay type: cell-based; settings: Rattus norvegicus; Table 1A
[15] = system: rat new born myocytic culture; assay: primary tissue culture, myocytic; assay type: cell-based; settings: data not shown
[16] = system: human neuroblastoma (SK-N-SH); assay: cell viability (neutral red, Almar Blue, Hoechst dye), neuroblastoma SK-N-SH; assay type: cell-based; settings: Homo sapiens, SK-N-SH; Table 1A
[17] = system: human breast (MCF7); assay: cell viability, breast MCF7; assay type: cell-based; settings: Table 1A
[18] = system: mouse-selected embryo, neuronal culture; assay: primary tissue culture, neuronal; assay type: cell-based; settings: data not shown
[19] = system: Neuroblastoma cell line (SK-NSH); assay: apoptosis by flow cytometry of propidium iodide stained cells; assay type: cell-based, human; settings: after 24 and 48 hours at 20 μM and higher; FIG. 7
Description: The percentage of apoptosis of the cells was determined by flow cytometry of propidium iodide stained cells using a fluorescence-activated cell sorter (FACScan) (Becton and Dickenson, Heidelberg, Calif.) equipped with an argon ion laser (an excitation wavelength, […]) and a doublet discrimination module (DDM). Lysis II (BD) software was used for data acquisition.

[20] = system: p53 mutant; assay: p53 mutant expression, western blotting in glioma C6; assay type: cell-based, rat; settings: FIG. 8
[21] = system: Colon Ht-29; assay: cell viability, colon Ht-29; assay type: cell-based; settings: Homo sapiens, Table 1A
[22] = system: B16 melanoma; settings: for mean number of metastases: controls 53.8+; for mean lungs weight: day 27, controls 685; for mice with confluent lungs: controls 6/7
Description: Female C57 mice aged 5-7 weeks were used, animals were divided into 3 treatment groups:
1. Controls: B16 inoculated vehicle treated;
Half of the animals were sacrificed after 21 days and half after 27 days. Lungs weight and number of metastases were recorded.

[23] = system: HaCat I5 cells; assay: DNA fragmentation, flow cytometry, HaCat I5; assay type: cell-based, human; settings: basal 10.23%
Description: (§3) DNA fragmentation was determined by flow cytometric analysis of propidium iodide-stained cells according to the method of Vindelov et al Vindelov, L. L., et al. Cytometry.

[24] = system: B16 melanoma cells; assay type: in vivo
Description: Male C57 black mice aged 5-7 weeks were used. Animals were inoculated with B16 melanoma cells by iv. injection (200,000 cells/mouse) to the tail vein. […]. Body weight was recorded three times weekly during the experiment and survival was registered. Animals were sacrificed 24 days after cell inoculation, and lungs were dissected and weighted.

[25] = system: HaCat cells; assay: DNA fragmentation, flow cytometry, HaCat; assay type: cell-based, human; settings: basal 29%
Description: as §3

[26] = system: Melanoma B16 cells
Description: Animals were divided into three groups:
1. Controls B16 with no therapy;
Water consumption was registered daily, and calculation of dose was performed according to the mean consumed water. Body weight was registered 3 time/week.

[27] = Homo sapiens, HaCaT, mean of the determinations, read-out: IC50 HaCat I5 ME
[28] = Homo sapiens, HaCaT, single determinations, read-out: IC50 HaCat I5

## CN(C)CCCN1c2ccccc2CCc2ccc(Cl)cc21 [Clomipramine]
[1]
  cell viability in combination with doxorubicin (in words): significantly decreased
[2]
  cell viability HaCat I5 (in words): effective in reducing cell viability
[3]
  potentiation of doxorubicin toxicity (in words): potentiate the toxicity of doxorubicin
[4]; clomipramine 10, […], 20 μM with doxorubicin 1, 2.5, 5 μM, FIG. 6B
  cell viability in combination with doxorubicin: less than 15 % from control
[5]
  survival rate during four weeks of treatment: 7/7
  lungs weight / tumor size compared to control group: effective in reducing tumor size
[6]
  cell viability HaCat (in words): effective in reducing cell viability

## Fc1ccc([C@@H]2CCNC[C@H]2COc2ccc3c(c2)OCO3)cc1 [Paroxetine]
[7]; read-out: IC50 Mean +/− SD
  IC50: 12.4 µM
[2]
  cell viability HaCat I5 (in words): effective in reducing cell viability
[2]; [27]
  IC50: 21 µM
[2]; [28]
  IC50: 21 µM
[8]; 10 μM to 100 μM, neutral red, 24 hr post treatment, vs primary mouse brain and selected neurons, FIG. 1
  sensitivity of neuroblastoma cells compared to primary tissue (viability): increased sensitivity
[8]; Table 1B, read-out: Cell viability IC50 Neuroblastoma SH-SY5T
  IC50: 15 µM
[9]
  IC50: < 10 µM
[10]; Example 9, read-out: IC50 levels, wild type B16 mouse melanoma
  IC50: 15 to 20 µM
[10]; Table 1B, read-out: Cell viability IC50 Melanoma 16B
  IC50: 12 µM
[4]; B16 melanoma cells, FIG. 6D
  potentiation of doxorubicin (in words): same effect
[5]
  survival rate during four weeks of treatment: 5/6
  lungs weight / tumor size compared to control group: effective in reducing tumor size
[11]; Table 1B, read-out: Cell viability IC50 Prostate LN-Cap
  IC50: 16 µM
[6]
  cell viability HaCat (in words): effective in reducing cell viability
[12]
  IC50: 12 µM
[13]; B16, Example 9, FIG. 9, read-out: IC50 levels, transformed (MDR) B16 melanoma
  IC50: 15 to 20 µM
[13]; Table 1B, read-out: Cell viability IC50 Melanoma B16 MDR
  IC50: 11 µM

## OCCN1CCN(CCCN2c3ccccc3Sc3ccc(Cl)cc32)CC1 [Perphenazine]
[14]
  IC50: 22 µM
[7]; read-out: IC50 Mean ± SD
  IC50: 20 ± 2.7 µM
[15]
  IC50: 35 to 55 µM
[2]; [27]
  IC50: 26 µM
[2]; [28]
  IC50: 30 µM
[2]; single determinations, read-out: IC50 HaCat I5
  IC50: 22 µM
[8]; Table 1A, read-out: Viability IC50 Neuroblastoma SH-SY5T
  IC50: 15 µM
[16]
  IC50: 21 µM
[17]
  IC50: 21 µM
[18]
  IC50: 60 µM
[10]; Table 1A, read-out: Viability IC50 Melanoma B16
  IC50: 23 µM
[19]
  apoptosis (in words): mortal and dramatic apoptosis
[11]; Table 1A, read-out: Viability IC50 Prostate LN-Cap
  IC50: 18 µM
[20]; 60 μM
  mean decrease in expression of p53 mutant: 30%
[21]
  IC50: 22 µM
[6]; mean of the determinations, read-out: IC50 HaCat ME
  IC50: 24 µM
[6]; single determinations, read-out: IC50 HaCat
  IC50: 24 µM

## CSc1ccc2c(c1)N(CCC1CCCCN1C)c1ccccc1S2 (stereo not drawn) [Thioridazine]
[22]; 10 mg/kg i.p. x3/week, after 21 days
  mean number of metastases: 46.1
[22]; 10 mg/kg
  mean lungs weight: 520 mg
  mice with confluent lungs: 6/7
[22]; […] mg/kg i.p. x3/week, after 21 days
  mean number of metastases: 28.5
[22]; […] mg/kg
  mean lungs weight: 335 mg
  mice with confluent lungs: 2/7
[22]; after 21 days, vs controls
  lungs weight: No difference
[22]; parenteral route, B16 melanoma in mice
  effective doses: 15 to 20 mg/kg
[22]; parenteral route, mice
  toxic concentrations: higher than 30 mg/kg
[2]
  cell viability HaCat I5 (in words): effective in reducing cell viability; also recorded: responded
[23]; 25 μM
  apoptosis (DNA fragmentation): 74.5%
[23]; 50 μM
  apoptosis (DNA fragmentation): 76.6%
[24]; 2.5 mg/kg i.p. 3 times/week
  survival rate: 4/5
[24]; 5 mg/kg i.p. 3 times/week
  survival rate: 3/4
[24]; 10 mg/kg i.p. 3 times/week
  survival rate: 5/5
[24]; 20 mg/kg compared to 2.5 mg/kg (p=0.05), 24 days after inoculation
  lungs weight: significant decrease
[24]; 20 mg/kg i.p. 3 times/week
  survival rate: 5/5
[25]; 25 μM
  rate of DNA fragmentation: 82.8%
[25]; 50 μM
  rate of DNA fragmentation: 89.3%
[5]
  survival rate during four weeks of treatment: 7/7
  lungs weight / tumor size compared to control group: effective in reducing tumor size
[26]; 20-30 mg/kg per day, after 24 days, same rate as controls
  mice with big or conglomerate metastases: 1/7
[26]; 27 and 30 days, controls 6/11
  animals with confluent metastases: 0/21
[26]; 30-40 mg/kg per day, after 24 days
  big or confluent metastases: No big or confluent metastases were found
[26]; controls 5/18
  spontaneous death during experiment: 2/36
[26]; in drinking water
  body weight vs healthy and B16 controls: No difference
[20]; 30 and 60 μM
  mean decrease in expression of p53 mutant: 75%
[6]
  cell viability HaCat (in words): effective in reducing cell viability; also recorded: responded
